Experimental data from patent US5112804A, “Pharmaceutical composition and method of intranasal administration” (Temple University of the Commonwealth System of Higher …, priority 1989, dated 1992).

System: blood glucose level
Assay: Insulin absorption animal study, continuous blood glucose monitoring after nasal administration
Assay type: in vivo, dog
Conditions: dogs
Excerpt: The hypoglycemic effect of the above preparations was confirmed in animal glucose monitoring studies utilizing continuous glucose monitoring with the device described in J. Clin. Endocrinol. Metab. 53: 1145 (1984). The device consists of a system for nonthrombogenic blood withdrawal coupled to a system for blood glucose measurement. The blood withdrawal system includes a disposable sterile intravenous needle and catheter connected to a peristaltic pump. The inside wall of the catheter is coated with tridodecyclmethylammonium chloride complexed with heparin to provide a nonthrombogenic surface. Blood is continuously withdrawn at a rate of 12 ml/hr from the experimental animal via the nonthrombogenic catheter. The blood is diluted in a Plexiglass mixing chamber with six volumes of phosphate buffer solution (0.015 M; pH 7.4) containing 10 IU/ml heparin and then moved into the device's sensory chamber. […]
Six preconditioned female mongrel hound dogs treated for worms, weighing 19-20 kg, were fasted overnight and anesthetized in the morning with intravenous "NEMBUTAL" sodium pentobarbital (250 mg initial dose, 25 mg every 30 minutes for maintenance). […] Blood glucose level was continuously monitored. The resulting decrease in blood glucose level for the insulin dosages in Table 1 are recorded in FIGS. 1 to 12.

Structure (SMILES): CC1(C)[C@@H](O)CC[C@]2(C)[C@H]3C(=O)C=C4[C@@H]5C[C@@](C)(C(=O)O)CC[C@]5(C)CC[C@@]4(C)[C@]3(C)CC[C@@H]12 [glycyrrhetinic acid]
- enhancing absorption of insulin across the nasal membrane: effective
